Source: patent US9850283B2, “Macrocyclic inhibitors of the PD-1/PD-L1 and CD80(B7-1)/PD-L1 protein/protein interactions” (BRISTOL-MYERS SQUIBB COMPANY, priority 2013, dated 2017)
pIC50: −log10 of the molar value. Where two headings read alike, the source gives them in different places. Positions of bridges follow the written chain, without caps; N, C: chain ends. Non-standard residues stand in square brackets, D forms with d. Residues, ends and D or L forms follow the SMILES beside them. ξ: configuration not given here. 4Pal = N[C@@H](Cc1ccncc1)C(=O)O; NMeNle = CCCC[C@H](NC)C(=O)O; NMeA = CN[C@@H](C)C(=O)O; ξAze = O=C(O)C1CCN1; ξP = O=C(O)C1CCCN1; Sar = CNCC(=O)O

Molecular target: T1, Human PD-L1/PD-1 (Homo sapiens, UniProt Q9NZQ7)
T1 construct: made in house; host or cells: HEK293T
T1 sequence (Q9NZQ7 with tags, fused parts or gaps): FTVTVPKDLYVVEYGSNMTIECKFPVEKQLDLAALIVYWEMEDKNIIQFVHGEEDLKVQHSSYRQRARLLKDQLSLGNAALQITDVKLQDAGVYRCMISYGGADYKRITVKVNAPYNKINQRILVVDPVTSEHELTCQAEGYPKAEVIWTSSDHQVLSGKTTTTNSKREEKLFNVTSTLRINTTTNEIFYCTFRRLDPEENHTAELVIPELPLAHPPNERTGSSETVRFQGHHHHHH
Assay: HTRF PD-1-Ig/PD-L1-His binding assay (human PD-L1)
Details: read-out: HTRF Human PD-L1/PD-1 Binding Assay IC50
Summary of the method: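 The time-resolved fluorescence signal comes from Eu-cryptate anti-Ig (1 nM) and APC anti-His (20 nM) antibodies bound to a PD-1-Ig/PD-L1-His complex. Both partners lack transmembrane regions.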

[1] = Table 8, Compound No. 1 variant macrocyclic peptides

Structure (SMILES)	pIC50 (Table 9, Compound No. 71 variant macrocyclic peptides)	pIC50 [1]
CCCC[C@H]1C(=O)N(C)CC(=O)N[C@@H](CC(=O)O)C(=O)N[C@@H](C(C)C)C(=O)N[C@@H](Cc2ccccc2)C(=O)N[C@@H](Cc2ccc(O)cc2)C(=O)N(C)CC(=O)N[C@@H](Cc2c[nH]c3ccccc23)C(=O)N[C@@H](Cc2ccc(O)cc2)C(=O)N[C@@H](CC(C)C)C(=O)N[C@H](C(=O)NCC(N)=O)CSCC(=O)N[C@@H](Cc2ccccc2)C(=O)N(C)[C@@H](Cc2ccccc2)C(=O)N1C [Compound No. 82] (HELM PEPTIDE1{[O=C(C[*:3])[*:2]].F.[meF].[CCCC[C@@H](C(=O)[*:2])N(C)[*:1]].[Sar].D.V.F.Y.[Sar].W.Y.L.C.G.[am]}$PEPTIDE1,PEPTIDE1,1:R3-14:R3$$$V2.0)	7.33	
CCCC[C@H]1C(=O)N(C)[C@@H](CCCC)C(=O)N[C@@H](CCCNC(=N)N)C(=O)N[C@H](C(=O)NCC(N)=O)CSCC(=O)N[C@@H](Cc2ccccc2)C(=O)N(C)[C@@H](C)C(=O)N[C@@H](CC(N)=O)C(=O)N2CCC2C(=O)N[C@@H](Cc2cnc[nH]2)C(=O)N[C@@H](CC(C)C)C(=O)N(C)CC(=O)N[C@@H](Cc2c[nH]c3ccccc23)C(=O)N[C@@H](CO)C(=O)N[C@@H](Cc2c[nH]c3ccccc23)C(=O)N1C (some centres unmarked) [Compound No. 50] ({CH2CO}-F[NMeA]N[ξAze]HL[Sar]WSW[NMeNle][NMeNle]RCG-NH2; thioether N-14)		7.15
CCCC[C@H]1C(=O)N(C)[C@@H](CCCC)C(=O)N[C@@H](CCCNC(=N)N)C(=O)N[C@H](C(=O)NCC(N)=O)CSCC(=O)N[C@@H](Cc2ccccc2)C(=O)N(C)[C@@H](C)C(=O)N[C@@H](CC(N)=O)C(=O)N2CCCC2C(=O)N[C@@H](Cc2cnc[nH]2)C(=O)N[C@@H](CC(C)C)C(=O)N(C)CC(=O)N[C@@H](C)C(=O)N[C@@H](CO)C(=O)N[C@@H](Cc2c[nH]c3ccccc23)C(=O)N1C (some centres unmarked) [Compound No. 15] ({CH2CO}-F[NMeA]N[ξP]HL[Sar]ASW[NMeNle][NMeNle]RCG-NH2; thioether N-14)		< 4.52

Second part, the compound after the results:

pIC50 (Table 9, Compound No. 71 variant macrocyclic peptides)	pIC50 [1]	Structure (SMILES)
	7.51	CCCC[C@H]1C(=O)N(C)[C@@H](CCCC)C(=O)N[C@@H](CCCNC(=N)N)C(=O)N[C@H](C(=O)NCC(N)=O)CSCC(=O)N[C@@H](Cc2ccccc2)C(=O)N(C)[C@@H](C)C(=O)N[C@@H](CC(N)=O)C(=O)N2CCCC2C(=O)N[C@@H](Cc2cnc[nH]2)C(=O)N[C@@H](C)C(=O)N(C)CC(=O)N[C@@H](Cc2c[nH]c3ccccc23)C(=O)N[C@@H](CO)C(=O)N[C@@H](Cc2c[nH]c3ccccc23)C(=O)N1C (some centres unmarked) [Compound No. 11] ({CH2CO}-F[NMeA]N[ξP]HA[Sar]WSW[NMeNle][NMeNle]RCG-NH2; thioether N-14)
	7.48	CCCC[C@H]1C(=O)N(C)[C@@H](CCCC)C(=O)N[C@@H](CCCNC(=N)N)C(=O)N[C@H](C(=O)NCC(N)=O)CSCC(=O)N[C@@H](Cc2ccncc2)C(=O)N(C)[C@@H](C)C(=O)N[C@@H](CC(N)=O)C(=O)N2CCC[C@H]2C(=O)N[C@@H](Cc2cnc[nH]2)C(=O)N[C@@H](CC(C)C)C(=O)N(C)CC(=O)N[C@@H](Cc2c[nH]c3ccccc23)C(=O)N[C@@H](CO)C(=O)N[C@@H](Cc2c[nH]c3ccccc23)C(=O)N1C [Compound No. 39] ({CH2CO}-[4Pal][NMeA]NPHL[Sar]WSW[NMeNle][NMeNle]RCG-NH2; thioether N-14)
